We go through eleven compounds from PubChem BioAssay (NCI).

Test systems include NCI-H23 lung; SR leukemia; MALME-3M melanoma; SW-620 colon; SN12C renal; SF-268 CNS; UACC-62 melanoma; HCC-2998 colon; NCI-H460 lung; SF-539 CNS.
Test in all cases: inhibition of tumour cell growth, NCI panel, 48 h

The structures appear in SMILES notation.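 96-well plates; 48 h exposure; 5 concentrations. Endpoints by linear interpolation between flanking doses. Not reached: highest tested concentration assigned. At the GI50, growth is halved. At the TGI there is no net growth.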

As to `O=C1C(Cl)C(c2ccccc2O)N1n1cnc2ccccc2c1=O` (configuration not stated), the TGI with NCI-H23 lung was greater than 100 µM; with SR leukemia, greater than 100 µM; in the test with MALME-3M melanoma it was greater than 100 µM; in the test with SW-620 colon it was greater than 100 µM; with SN12C renal, 20.4 µM; with SF-268 CNS it was greater than 100 µM. In addition, the TGI with UACC-62 melanoma, with HCC-2998 colon and in the test with NCI-H460 lung was greater than 100 µM throughout.

With `COc1cccc(C2c3cc4c(cc3OC(N3CCCC3)C2C)OCO4)c1O` (configuration not stated), the TGI with NCI-H23 lung is 34.9 µM; with SR leukemia, 25 µM; in the test on SF-539 CNS it was 10.6 µM; with MALME-3M melanoma, 58.2 µM; in the test on SW-620 colon it was greater than 100 µM; with SN12C renal, 40.7 µM. Further, the TGI is 70.1 µM in the test on SF-268 CNS, 43.7 µM in the test with UACC-62 melanoma, 46.9 µM in the test on HCC-2998 colon and 32.4 µM with NCI-H460 lung.

With `CSc1n[n+]2c(s1)SCCC2`, the TGI in the test with NCI-H23 lung, in the test on SR leukemia, with SF-539 CNS, in the test with MALME-3M melanoma, with SW-620 colon and in the test with SN12C renal was greater than 100 µM in each case. In addition, the TGI in the test with SF-268 CNS, in the test with UACC-62 melanoma, in the test with HCC-2998 colon and with NCI-H460 lung was greater than 100 µM throughout.

Take `O=c1[nH]c2cc(Cl)ccc2nc1/C(=N\O)C(O)c1ccc([N+](=O)[O-])cc1` (configuration not stated): the TGI in the test on SR leukemia, with SF-539 CNS, in the test with MALME-3M melanoma, in the test on SW-620 colon, in the test on SN12C renal and in the test with SF-268 CNS was greater than 100 µM each time. Also, the TGI in the test on UACC-62 melanoma, in the test with HCC-2998 colon and in the test with NCI-H460 lung was greater than 100 µM throughout.

As to `O=C(Nc1cccc(O)c1)C(=O)C(C(=O)c1ccc(Cl)c(Cl)c1)C1OC(=O)c2ccccc21` (configuration not stated), the TGI with NCI-H23 lung came to 32.6 µM; with SR leukemia, 26.6 µM; with MALME-3M melanoma it was 33.8 µM; in the test with SW-620 colon, 29 µM; with SN12C renal, 38.4 µM; in the test with SF-268 CNS, 33.7 µM. Further, the TGI with UACC-62 melanoma was 31.8 µM; in the test on HCC-2998 colon it was 29.2 µM; with NCI-H460 lung, 27.5 µM.

As for `COc1cc(Nc2nc3ccccc3cc2C(=O)Nc2ccc(F)c(F)c2)cc(OC)c1OC`, the GI50 with NCI-H23 lung was 2.84 µM; with SR leukemia it was 2.71 µM; with SF-539 CNS it was 3.65 µM; with MALME-3M melanoma it was 2.68 µM; with SW-620 colon, 3.53 µM; with SN12C renal, 3.43 µM. The GI50 is 3.96 µM in the test with SF-268 CNS, 1.68 µM in the test on UACC-62 melanoma, 4.19 µM in the test with HCC-2998 colon and 3.11 µM with NCI-H460 lung. The TGI in the test on NCI-H23 lung was 8.51 µM; in the test on SR leukemia it was 9.4 µM; in the test with SF-539 CNS, greater than 100 µM; in the test on MALME-3M melanoma, 6.41 µM; with SW-620 colon, greater than 100 µM; in the test on SN12C renal, greater than 100 µM. The TGI in the test on SF-268 CNS was greater than 100 µM; in the test on UACC-62 melanoma, 4.46 µM; in the test on HCC-2998 colon it was greater than 100 µM; in the test with NCI-H460 lung, greater than 100 µM.

For `NC(=O)c1cccc(Nc2nccc(Nc3cccc4[nH]ncc34)n2)c1`, the GI50 was 17.1 µM in the test on NCI-H23 lung; 8.72 µM in the test on SR leukemia; 6.24 µM in the test with SF-539 CNS; 24.4 µM with MALME-3M melanoma; 9.09 µM in the test on SW-620 colon; 8.74 µM in the test on SN12C renal. In addition, the GI50 with SF-268 CNS is 8.45 µM; in the test on UACC-62 melanoma, 7.02 µM; with HCC-2998 colon, 14.7 µM; in the test on NCI-H460 lung, 9.05 µM. The TGI in the test on NCI-H23 lung was greater than 25 µM; in the test on SR leukemia, greater than 25 µM; in the test on SF-539 CNS, greater than 21.7 µM; with MALME-3M melanoma it was greater than 25 µM; in the test with SW-620 colon, greater than 25 µM; in the test on SN12C renal, greater than 25 µM. For the same compound, the TGI in the test with SF-268 CNS, with UACC-62 melanoma, in the test with HCC-2998 colon and in the test with NCI-H460 lung was greater than 25 µM each time.

Regarding `COC(=O)C(Cc1nc2ccccc2[nH]c1=O)C(=O)C(=O)Nc1ccc([N+](=O)[O-])cc1[N+](=O)[O-]` (configuration not stated), the TGI was 35.9 µM in the test with NCI-H23 lung; greater than 100 µM in the test with SR leukemia; 38.5 µM in the test with SF-539 CNS; 34.3 µM with MALME-3M melanoma; 39.6 µM with SW-620 colon; 50.6 µM in the test on SN12C renal. For the same compound, the TGI with SF-268 CNS is 47.7 µM; in the test on UACC-62 melanoma it was 38.9 µM; with HCC-2998 colon, 33.2 µM; in the test on NCI-H460 lung, 49.2 µM.

Turning to `COc1cccc(NC(=O)c2sc3nc4c(cc3c2N)C(=O)CCC4)c1`, the GI50 was 0.346 µM in the test on NCI-H23 lung; 0.133 µM with SR leukemia; 0.108 µM in the test with SF-539 CNS; 0.108 µM with MALME-3M melanoma; 0.0571 µM in the test on SW-620 colon; 0.461 µM with SN12C renal. Besides, the GI50 is 0.725 µM in the test on SF-268 CNS, 0.0749 µM in the test with UACC-62 melanoma, 0.279 µM with HCC-2998 colon and 0.0953 µM with NCI-H460 lung. Moreover, the TGI in the test on NCI-H23 lung is greater than 100 µM; in the test with SR leukemia, greater than 100 µM; with SF-539 CNS it was 0.587 µM; with MALME-3M melanoma it was greater than 100 µM; in the test on SW-620 colon it was greater than 100 µM; in the test with SN12C renal, greater than 100 µM. For the same compound, the TGI in the test on SF-268 CNS, with UACC-62 melanoma, with HCC-2998 colon and in the test on NCI-H460 lung was greater than 100 µM each time.

As to `Cn1c(=O)c2nc(-c3ccc(Cl)cc3)oc2n(C)c1=O`, the TGI with NCI-H23 lung, in the test with SR leukemia, in the test with SF-539 CNS, in the test on MALME-3M melanoma, in the test with SW-620 colon and with SN12C renal was greater than 100 µM in each case. Also, the TGI in the test on SF-268 CNS, in the test on UACC-62 melanoma, in the test on HCC-2998 colon and with NCI-H460 lung was greater than 100 µM each time.

On to `Cc1ccc(C)c(C2NC(=O)c3ccccc3N2)c1` (configuration not stated), for which the TGI with NCI-H23 lung was greater than 62.1 µM; in the test on SR leukemia, greater than 27.4 µM; with SF-539 CNS, 3.07 µM; in the test on MALME-3M melanoma, greater than 95.7 µM; with SW-620 colon, greater than 49.6 µM; with SN12C renal it was greater than 100 µM. The TGI was greater than 100 µM in the test with SF-268 CNS, greater than 70.3 µM in the test with UACC-62 melanoma, 31.4 µM in the test with HCC-2998 colon and 34.5 µM in the test with NCI-H460 lung.
